{
  "source": "ChEMBL document CHEMBL3885881",
  "about": "“DrugMatrix”",
  "species": "Rattus norvegicus",
  "experiment": "DrugMatrix - Regimen: Daily Repeat",
  "format": "toxicity, organism-based, Sprague-Dawley",
  "design": "regimen Daily Repeat, gender Male, age 6-8 weeks",
  "details": "in vivo, po, 10 mg/kg, route oral GAVAGE, dose level Low, vehicle .5 % CMC; for ABSOLUTE BASOPHIL / ABSOLUTE EOSINOPHIL / ABSOLUTE LYMPHOCYTE / ABSOLUTE MONOCYTE / ABSOLUTE SEGMENTED NEUTROPHIL / BASOPHIL / EOSINOPHIL / ERYTHROCYTE COUNT / HEMATOCRIT / HEMOGLOBIN / LEUKOCYTE COUNT / LYMPHOCYTE / MEAN CORPUSCULAR HEMOGLOBIN / MEAN CORPUSCULAR HEMOGLOBIN CONCENTRATION / MEAN CORPUSCULAR VOLUME / MONOCYTE / NEUTROPHIL / NUCLEATED RED BLOOD CELLS / PLATELET COUNT: tissue Blood; for ALANINE AMINOTRANSFERASE / ALBUMIN / ALKALINE PHOSPHATASE / ASPARTATE AMINOTRANSFERASE / BLOOD UREA NITROGEN / CARBON DIOXIDE / CHLORIDE / CHOLESTEROL / CREATINE PHOSPHOKINASE / CREATININE / GLUCOSE / LACTATE DEHYDROGENASE / LIPASE / PHOSPHORUS / POTASSIUM / SODIUM / TOTAL BILIRUBIN / TOTAL PROTEIN / URIC ACID: tissue Plasma",
  "data": [
    {"smiles": "O=C1CN=C(c2ccccc2)c2cc([N+](=O)[O-])ccc2N1", "note": "[NITRAZEPAM]", "values": [
      {"measurement": "ABSOLUTE BASOPHIL", "setting": "72 h, time 3 day", "value": 0, "unit": "CELLS/uL"},
      {"measurement": "ABSOLUTE EOSINOPHIL", "setting": "72 h, time 3 day", "value": 19, "unit": "CELLS/uL"},
      {"measurement": "ABSOLUTE LYMPHOCYTE", "setting": "72 h, time 3 day", "value": 6878.67, "unit": "CELLS/uL"},
      {"measurement": "ABSOLUTE MONOCYTE", "setting": "72 h, time 3 day", "value": 19, "unit": "CELLS/uL"},
      {"measurement": "ABSOLUTE SEGMENTED NEUTROPHIL", "setting": "72 h, time 3 day", "value": 750, "unit": "CELLS/uL"},
      {"measurement": "BASOPHIL", "setting": "72 h, time 3 day", "value": 0, "unit": "%"},
      {"measurement": "EOSINOPHIL", "setting": "72 h, time 3 day", "value": 0.33, "unit": "%"},
      {"measurement": "ERYTHROCYTE COUNT", "setting": "72 h, time 3 day", "value": 5.13, "unit": "x10E6/uL"},
      {"measurement": "HEMATOCRIT", "setting": "72 h, time 3 day", "value": 31.73, "unit": "%"},
      {"measurement": "HEMOGLOBIN", "setting": "72 h, time 3 day", "value": 12.93, "unit": "G/DL"},
      {"measurement": "LEUKOCYTE COUNT", "setting": "72 h, time 3 day", "value": 7.67, "unit": "x10E3/uL"},
      {"measurement": "LYMPHOCYTE", "setting": "72 h, time 3 day", "value": 90.33, "unit": "%"},
      {"measurement": "MEAN CORPUSCULAR HEMOGLOBIN", "setting": "72 h, time 3 day", "value": 25.23, "unit": "pg"},
      {"measurement": "MEAN CORPUSCULAR HEMOGLOBIN CONCENTRATION", "setting": "72 h, time 3 day", "value": 40.73, "unit": "G/DL"},
      {"measurement": "MEAN CORPUSCULAR VOLUME", "setting": "72 h, time 3 day", "value": 61.9, "unit": "fL"},
      {"measurement": "MONOCYTE", "setting": "72 h, time 3 day", "value": 0.33, "unit": "%"},
      {"measurement": "NEUTROPHIL", "setting": "72 h, time 3 day", "value": 9, "unit": "%"},
      {"measurement": "NUCLEATED RED BLOOD CELLS", "setting": "72 h, time 3 day", "value": "0 /100WBC"},
      {"measurement": "PLATELET COUNT", "setting": "72 h, time 3 day", "value": 847, "unit": "x10E3/uL"},
      {"measurement": "ALANINE AMINOTRANSFERASE", "setting": "72 h, time 3 day", "value": 48.67, "unit": "u/L"},
      {"measurement": "ALBUMIN", "setting": "72 h, time 3 day", "value": 4.23, "unit": "G/DL"},
      {"measurement": "ALKALINE PHOSPHATASE", "setting": "72 h, time 3 day", "value": 424.33, "unit": "u/L"},
      {"measurement": "ASPARTATE AMINOTRANSFERASE", "setting": "72 h, time 3 day", "value": 76.67, "unit": "u/L"},
      {"measurement": "BLOOD UREA NITROGEN", "setting": "72 h, time 3 day", "value": 15, "unit": "mg/dL"},
      {"measurement": "CARBON DIOXIDE", "setting": "72 h, time 3 day", "value": 31, "unit": "mmol/L"},
      {"measurement": "CHLORIDE", "setting": "72 h, time 3 day", "value": 103, "unit": "MEQ/L"},
      {"measurement": "CHOLESTEROL", "setting": "72 h, time 3 day", "value": 76.67, "unit": "mg/dL"},
      {"measurement": "CREATINE PHOSPHOKINASE", "setting": "72 h, time 3 day", "value": 169, "unit": "u/L"},
      {"measurement": "CREATININE", "setting": "72 h, time 3 day", "value": 0.18, "unit": "mg/dL"},
      {"measurement": "GLUCOSE", "setting": "72 h, time 3 day", "value": 141.67, "unit": "mg/dL"},
      {"measurement": "LACTATE DEHYDROGENASE", "setting": "72 h, time 3 day", "value": 124.67, "unit": "u/L"},
      {"measurement": "LIPASE", "setting": "72 h, time 3 day", "value": 10, "unit": "u/L"},
      {"measurement": "PHOSPHORUS", "setting": "72 h, time 3 day", "value": 10.73, "unit": "mg/dL"},
      {"measurement": "POTASSIUM", "setting": "72 h, time 3 day", "value": 5.83, "unit": "MEQ/L"},
      {"measurement": "SODIUM", "setting": "72 h, time 3 day", "value": 149.6, "unit": "MEQ/L"},
      {"measurement": "TOTAL BILIRUBIN", "setting": "72 h, time 3 day", "value": 0.2, "unit": "mg/dL"},
      {"measurement": "TOTAL PROTEIN", "setting": "72 h, time 3 day", "value": 5.43, "unit": "G/DL"},
      {"measurement": "URIC ACID", "setting": "72 h, time 3 day", "value": 0.9, "unit": "mg/dL"},
      {"measurement": "ABSOLUTE BASOPHIL", "setting": "120 h, time 5 day", "value": 0, "unit": "CELLS/uL"},
      {"measurement": "ABSOLUTE EOSINOPHIL", "setting": "120 h, time 5 day", "value": 0, "unit": "CELLS/uL"},
      {"measurement": "ABSOLUTE LYMPHOCYTE", "setting": "120 h, time 5 day", "value": 11358.67, "unit": "CELLS/uL"},
      {"measurement": "ABSOLUTE MONOCYTE", "setting": "120 h, time 5 day", "value": 0, "unit": "CELLS/uL"},
      {"measurement": "ABSOLUTE SEGMENTED NEUTROPHIL", "setting": "120 h, time 5 day", "value": 1008, "unit": "CELLS/uL"},
      {"measurement": "BASOPHIL", "setting": "120 h, time 5 day", "value": 0, "unit": "%"},
      {"measurement": "EOSINOPHIL", "setting": "120 h, time 5 day", "value": 0, "unit": "%"},
      {"measurement": "ERYTHROCYTE COUNT", "setting": "120 h, time 5 day", "value": 5.81, "unit": "x10E6/uL"},
      {"measurement": "HEMATOCRIT", "setting": "120 h, time 5 day", "value": 35.47, "unit": "%"},
      {"measurement": "HEMOGLOBIN", "setting": "120 h, time 5 day", "value": 13.93, "unit": "G/DL"},
      {"measurement": "LEUKOCYTE COUNT", "setting": "120 h, time 5 day", "value": 12.37, "unit": "x10E3/uL"},
      {"measurement": "LYMPHOCYTE", "setting": "120 h, time 5 day", "value": 92, "unit": "%"},
      {"measurement": "MEAN CORPUSCULAR HEMOGLOBIN", "setting": "120 h, time 5 day", "value": 24.07, "unit": "pg"},
      {"measurement": "MEAN CORPUSCULAR HEMOGLOBIN CONCENTRATION", "setting": "120 h, time 5 day", "value": 39.33, "unit": "G/DL"},
      {"measurement": "MEAN CORPUSCULAR VOLUME", "setting": "120 h, time 5 day", "value": 61.13, "unit": "fL"},
      {"measurement": "MONOCYTE", "setting": "120 h, time 5 day", "value": 0, "unit": "%"},
      {"measurement": "NEUTROPHIL", "setting": "120 h, time 5 day", "value": 8, "unit": "%"},
      {"measurement": "NUCLEATED RED BLOOD CELLS", "setting": "120 h, time 5 day", "value": "0 /100WBC"},
      {"measurement": "PLATELET COUNT", "setting": "120 h, time 5 day", "value": 1206.67, "unit": "x10E3/uL"},
      {"measurement": "ALANINE AMINOTRANSFERASE", "setting": "120 h, time 5 day", "value": 43.67, "unit": "u/L"},
      {"measurement": "ALBUMIN", "setting": "120 h, time 5 day", "value": 4.43, "unit": "G/DL"},
      {"measurement": "ALKALINE PHOSPHATASE", "setting": "120 h, time 5 day", "value": 331.67, "unit": "u/L"},
      {"measurement": "ASPARTATE AMINOTRANSFERASE", "setting": "120 h, time 5 day", "value": 77.33, "unit": "u/L"},
      {"measurement": "BLOOD UREA NITROGEN", "setting": "120 h, time 5 day", "value": 18, "unit": "mg/dL"},
      {"measurement": "CARBON DIOXIDE", "setting": "120 h, time 5 day", "value": 26.67, "unit": "mmol/L"},
      {"measurement": "CHLORIDE", "setting": "120 h, time 5 day", "value": 102, "unit": "MEQ/L"},
      {"measurement": "CHOLESTEROL", "setting": "120 h, time 5 day", "value": 67.67, "unit": "mg/dL"},
      {"measurement": "CREATINE PHOSPHOKINASE", "setting": "120 h, time 5 day", "value": 186.67, "unit": "u/L"},
      {"measurement": "CREATININE", "setting": "120 h, time 5 day", "value": 0.2, "unit": "mg/dL"},
      {"measurement": "GLUCOSE", "setting": "120 h, time 5 day", "value": 147.33, "unit": "mg/dL"},
      {"measurement": "LACTATE DEHYDROGENASE", "setting": "120 h, time 5 day", "value": 109.33, "unit": "u/L"},
      {"measurement": "LIPASE", "setting": "120 h, time 5 day", "value": 9.33, "unit": "u/L"},
      {"measurement": "PHOSPHORUS", "setting": "120 h, time 5 day", "value": 13.13, "unit": "mg/dL"},
      {"measurement": "POTASSIUM", "setting": "120 h, time 5 day", "value": 6.92, "unit": "MEQ/L"},
      {"measurement": "SODIUM", "setting": "120 h, time 5 day", "value": 147.33, "unit": "MEQ/L"},
      {"measurement": "TOTAL BILIRUBIN", "setting": "120 h, time 5 day", "value": 0.23, "unit": "mg/dL"},
      {"measurement": "TOTAL PROTEIN", "setting": "120 h, time 5 day", "value": 6.4, "unit": "G/DL"},
      {"measurement": "URIC ACID", "setting": "120 h, time 5 day", "value": 2.13, "unit": "mg/dL"}
    ]}
  ]
}
